Results published in patent US20260216182A1, “PYRIDAZINE NLRP3 INHIBITOR COMPOUND, PHARMACEUTICAL COMPOSITION, AND PREPARATION METHOD THEREFOR AND USE THEREOF” (CHANGCHUN GENESCIENCE PHARMACEUTICAL CO., LTD., priority 2022, published 2026).
Read-outs that look alike come from different tables or passages of the source.

Columns and labels:
[1] = test system: IL-1β; assay: Mouse acute peritonitis model (LPS/ATP), IL-1β in peritoneal lavage fluid and blood; assay type: in vivo, C57BL/6 mice; conditions: Mus musculus, 10 mg/kg oral, vs vehicle group
Description: Test Example 2: Mouse Acute Peritonitis Model Evaluation Experiment
Male C57BL/6 mice were orally administered with a 10 mg/kg dose of the test compound or control vehicle, and then injected intraperitoneally with 1 μg of E. coli 055: B5 ultrapure lipopolysaccharide (LPS) suspension 1 h later, followed by an intraperitoneal injection of 0.5 ml of 30 mM disodium salt ATP suspension (in PBS, the pH of the ATP solution was adjusted to 7.2 before injection) 2 h later. After 30 min, all animals would be euthanized by carbon dioxide, and blood and peritoneal lavage fluid would be collected. The peritoneal lavage fluid was kept at 4° C.
Preparation of peritoneal lavage fluid: The peritoneal cavity would be lavaged with ice-cold PBS (3 mL) containing 25 U/mL heparin and 10% heat-inactivated FBS. Prior to use, one tablet of the protease inhibitor mixture was added per 50 mL of buffer. The collected lavage fluid would be centrifuged (centrifugation conditions: 1000g, 4° C., 10 min) to remove cells and cell debris, and the clarified samples would be stored at −80° C. for measurement of cytokine IL-1β.
The mouse IL-1β/IL-1F2 DuoSet ELISA kit (R&D Systems) was used to measure the changes in IL-1β cytokine levels in peritoneal lavage fluid and serum. By comparing with the Vehical group, the inhibition rate of the compound on IL-1β was calculated.

[2] = target: T1, NLRP3 (Homo sapiens, UniProt Q96P20); assay: IC50 of NLRP3 inhibitors in reducing IL-1β secretion by THP-1 cells (PMA, LPS, nigericin; ELISA); assay type: cell-based; conditions: compound + nigericin 1 h
T1 construct: endogenous in cells; host or cells: THP-1 (human monocyte, PMA-differentiated, LPS-primed, nigericin-stimulated)
T1 sequence (Q96P20 whole entry): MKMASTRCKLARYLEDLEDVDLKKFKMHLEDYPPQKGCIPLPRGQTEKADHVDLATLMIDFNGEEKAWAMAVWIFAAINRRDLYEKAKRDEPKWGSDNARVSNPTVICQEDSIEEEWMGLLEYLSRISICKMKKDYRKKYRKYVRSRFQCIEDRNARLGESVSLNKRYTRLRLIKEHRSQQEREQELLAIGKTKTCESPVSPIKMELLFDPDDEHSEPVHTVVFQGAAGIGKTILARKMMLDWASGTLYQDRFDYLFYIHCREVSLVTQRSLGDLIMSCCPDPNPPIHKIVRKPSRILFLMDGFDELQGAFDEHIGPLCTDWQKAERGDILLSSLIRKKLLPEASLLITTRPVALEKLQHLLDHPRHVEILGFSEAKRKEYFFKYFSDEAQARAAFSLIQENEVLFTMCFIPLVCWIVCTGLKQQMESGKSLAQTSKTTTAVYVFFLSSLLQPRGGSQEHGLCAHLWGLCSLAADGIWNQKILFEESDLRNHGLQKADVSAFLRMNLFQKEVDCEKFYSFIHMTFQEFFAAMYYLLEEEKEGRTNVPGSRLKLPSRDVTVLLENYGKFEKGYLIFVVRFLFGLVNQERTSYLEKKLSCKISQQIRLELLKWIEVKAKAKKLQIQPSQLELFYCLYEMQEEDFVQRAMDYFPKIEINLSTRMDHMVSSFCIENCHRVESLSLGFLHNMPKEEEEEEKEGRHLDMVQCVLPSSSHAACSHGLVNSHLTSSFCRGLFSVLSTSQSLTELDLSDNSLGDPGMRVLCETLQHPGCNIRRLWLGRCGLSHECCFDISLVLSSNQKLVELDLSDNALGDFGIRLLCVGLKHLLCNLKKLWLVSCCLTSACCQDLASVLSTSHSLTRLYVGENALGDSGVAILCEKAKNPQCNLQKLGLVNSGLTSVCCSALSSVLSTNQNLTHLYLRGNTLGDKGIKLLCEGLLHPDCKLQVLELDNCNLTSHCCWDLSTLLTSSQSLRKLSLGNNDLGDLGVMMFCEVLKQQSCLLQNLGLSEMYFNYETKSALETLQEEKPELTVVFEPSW
Description: Test Example 1 Experiment on Detection of IC50 of NLRP3 Inhibitors in Reducing the Level of IL-1β Secretion by THP-1 Cells
In this experiment, we use the human monocyte THP-1 to study the inhibitory activity of NLRP3 inhibitor on the secretion of IL-Iβ by cells. Human THP-1 cells are treated with crotonol-12-tetradecanoate-13-acetate (PMA) to differentiate into mature macrophage models. Then, according to the two stages of inflammasome formation in cells (assembly and activation), the cells are stimulated with lipopolysaccharide (LPS) and nigericin in turn, ultimately promoting the extracellular release of IL-1β by THP-1 cells. The first stage of inflammasome formation involves stimulating cells with LPS (lipopolysaccharide), an agonist of the Toll-like receptor TLR4, to activate the expression of the inflammasome-associated proteins NLRP3, caspase 1, and pro-IL-1β, a precursor of IL-1β. The second stage of inflammasome formation involves the addition of the potassium ion carrier nigericin, which causes a series of membrane potential changes in THP-1 cells, destroys the cell membrane structure, causes the efflux of cellular potassium ions, further stimulates the oligomerization of NLRP3 monomers to form NLRP3 oligomers, and begins to recruit ASC and pro-caspase-1 to assemble the NLRP3 inflammasome complex containing a large amount of pro-caspase-1. The pro-caspase-1 on the activated NLRP3 inflammasome is enzymatically self-activated to form a large amount of active caspase-1. The activated caspase-1 further enzymatically promotes the conversion of pro-IL-1β into mature IL-1β that can be secreted.
(1) Cell suspensions were collected. The cells were centrifuged at 1000 rpm for 4 min, the supernatant was discarded, the cells were resuspended with 1 mL of test medium, and then the cell culture medium was gently pipetted up and down with a pipette and its tip to break up the cell aggregates. After counting the cells, the THP-1 cells were resuspended with complete RPMI medium 1640 containing PMA and seeded into 96-well plates and cultured in a 37° C., 5% CO2 incubator for 72 h.
(2) The culture medium was taken out from each well with an automatic plate washer dispenser EL406 and each well was rinsed twice with PBS. To each well, 96 μL of RPMI 1640 medium containing LPS was added. The cells were cultured in a 37° C., 5% CO2 incubator for 4 h.
(3) To each well, 2 μL of the compound and 2 μL of nigericin sodium salt were added, and the final compound concentration selected was 5000 nM, 1000 nM, 200 nM, 40 nM, 8 nM, 1.6 nM, 0.32 nM, 0 nM, respectively. The cells were cultured in a 37° C., 5% CO2 incubator for 1 h.
(4) An appropriate amount of supernatant was taken out, diluted 100 times, and the content of IL-1β in the supernatant was detected using Human IL-1 beta Valukine ELISA kit.

[3] = test system: mouse NASH model; assay: Mouse NASH model test (HFD + fructose), combination with semaglutide; assay type: in vivo, mice; conditions: low/high dose semaglutide alone
Description: Test Example 6 Mouse NASH Model Test
After the animals arrived and acclimatized for 1 week, they were randomly divided into 2 groups. 48 mice were fed a high-fat diet (HFD) and had free access to 15% fructose water (w/w). After the animals were fed for 20 weeks, they were fasted for 6 h, and fasting blood glucose (FBG) was monitored by a blood glucose meter. Orbital blood was taken from all animals, and serum was collected by centrifugation to detect serum ALT levels. Animals were randomly divided into 6 groups according to their body weight, FBG and ALT levels. After that, the high fat feed (HFD) was replaced with the modified high fat feed (mHFD), and the mice had free access to 15% fructose water (v/w). The 8 mice in the other group were fed normal diet and water.
The first end point of the experiment: After 8 weeks of administration, the end point body weight was recorded and the animals were fasted for 6 h, and fasting blood glucose was measured with a blood glucose meter. The mice were then euthanized by CO2 and serum was collected by orbital blood sampling and stored at −80° C. for insulin and biochemical analysis. The animal's liver was taken and the liver weight was recorded. The liver was divided into four parts, one part was quick-frozen in liquid nitrogen for biochemical analysis, one part was placed in tissue fixative for pathological analysis, one part was stored in RNAlater for qPCR detection (backup for later use), and one part was quick-frozen in liquid nitrogen for possible subsequent detection.
The second end point of the experiment: 3 mice were kept in each group for 6 weeks for further observation. The end point body weight was recorded and the mice were fasted for 6 h. Fasting blood glucose was tested with a blood glucose meter. The mice were then euthanized by CO2 and serum was collected by orbital blood sampling and stored at −80° C. for insulin and biochemical analysis. The animal's liver was taken and the liver weight was recorded. The liver was divided into four parts, one part was quick-frozen in liquid nitrogen for biochemical analysis, one part was placed in tissue fixative for pathological analysis, one part was stored in RNAlater for qPCR detection (backup for later use), and one part was quick-frozen in liquid nitrogen for subsequent detection.

[4] = read-out: IL-1β Peritoneal lavage fluid (inhibition rate)
[5] = read-out: IL-1β Plasma (inhibition rate)

Row | Molecule | inhibition at 10 mg/kg [1, 4] [%] | inhibition at 10 mg/kg [1, 5] [%] | IC50 [2] [nM] | rebound of body weight after drug withdrawal [3]
1 | CC(=O)c1ccc2c(-c3ccc(C(F)(F)F)cc3O)nnc(NC[C@H](O)CO)c2c1 [Compound 082] | 0 | 12 | 32 | 
2 | CC#Cc1ccc2c(-c3c(O)cc(Cl)cc3F)nnc(NC[C@H](O)CO)c2c1 [Compound 063, (2S)-3-((4-(4-chloro-2-fluoro-6-hydroxyphenyl)-7-(prop-1-yn-1-yl)phthalazin-1-yl)amino) propan-1,2-diol] | 79 | 74 | 15 | 
3 | CC(=O)c1ccc2c(-c3ccc(C(F)(F)F)cc3O)nnc(N[C@@H]3CCCC[C@H]3O)c2c1 [Compound 081] | 45 | 61 | 5.3 | 
4 | CC#Cc1ccc2c(-c3c(O)cc(C(F)(F)F)cc3F)nnc(NC[C@H](O)CO)c2c1 [Compound 064, (2S)-3-((4-(2-fluoro-6-hydroxy-4-(trifluoromethyl)phenyl)-7-(prop-1-yn-1-yl)phthalazin-1-yl)amino) propan-1,2-diol] | 81 | 90 | 18 | 
5 | CC(C(=O)NC1CC1)N1CCC[C@@H](Nc2nnc(-c3ccc(Cl)cc3O)c3ccncc23)C1 (mixture of isomers) [Compound 041, 2-((R)-3-((1-(4-chloro-2-hydroxyphenyl)pyrido[3,4-d]pyridazin-4-yl)amino)piperidin-1-yl)-N-cyclopropylpropionamide] |  |  | 14 | 
6 | O=C(C1CC1)N1CCC[C@@H](Nc2nnc(-c3ccc(Cl)cc3O)c3ccncc23)C1 [Compound 006, (R)-(3-((1-(4-chloro-2-hydroxyphenyl)pyrido[3,4-d]pyridazin-4-yl)amino)piperidin-1-yl)(cyclopropyl)methanone] |  |  | 12 | 
7 | CC#Cc1ccc2c(-c3c(O)cc(C(F)(F)F)cc3F)nnc(N[C@H]3C[C@@](C)(O)C3)c2c1 [Compound 066, 3-fluoro-2-(4-(((1S,3S)-3-hydroxy-3-methylcyclobutyl)amino)-6-(prop-1-yn-1-yl)phthalazin-1-yl)-5-(trifluoromethyl)phenol] |  |  | 20 | 
8 | OC[C@@H](O)CNc1nnc(-c2ccc(Cl)cc2O)c2ccc(C#CC3CC3)cc12 [Compound 079, (S)-3-((4-(4-chloro-2-hydroxyphenyl)-7-(cyclopropylethynyl)phthalazin-1-yl)amino) propan-1,2-diol] | 51 | 21 | 41 | 
9 | CC#Cc1ccc2c(-c3ccc(Cl)cc3O)nnc(N[C@@H]3CC(=O)N(CCO)C3)c2c1 [Compound 073, (R)-4-((4-(4-chloro-2-hydroxyphenyl)-7-(prop-1-yn-1-yl)phthalazin-1-yl)amino)-1-(2-hydroxyethyl)pyrrolidin-2-one] |  |  | 51 | 
10 | semaglutide [reference compound] |  |  |  | neither the control compound combined with semaglutide nor the groups of low/high dose semaglutide alone inhibited the rebound of body weight
11 | Cc1cc(C(F)(F)F)cc(O)c1-c1nnc(NCC(C)(C)O)c2cc(C#N)ccc12 [Compound 007, 4-((2-hydroxy-2-methylpropyl)amino)-1-(2-hydroxy-6-methyl-4-(trifluoromethyl)phenyl) phthalazin-6-carbonitrile] |  |  | 29 | 
12 | CC(C(=O)N1CCCC1)N1CCC[C@@H](Nc2nnc(-c3ccc(Cl)cc3O)c3ccncc23)C1 (some centres unmarked) [Compound 042] |  |  | 14 | 
13 | Cc1cc(Cl)cc(O)c1-c1nnc(NCC(C)(C)O)c2cc(-n3cccn3)ccc12 [Compound 026, 5-chloro-2-(4-((2-hydroxy-2-methylpropyl)amino)-6-(1H-pyrazol-1-yl)phthalazin-1-yl)-3-methylphenol] |  |  | 35 | 
14 | CC#Cc1ccc2c(-c3ccc(Cl)cc3O)nnc(NCC(C)(C)O)c2c1 [Compound 036, 5-chloro-2-(4-((2-hydroxy-2-methylpropyl)amino)-6-(prop-1-yn-1-yl)phthalazin-1-yl)phenol] |  |  | 51 | 
15 | COC(=O)N1CCC[C@@H](Nc2nnc(-c3ccc(Cl)cc3O)c3ccncc23)C1 [Compound 010, Methyl (R)-3-((1-(4-chloro-2-hydroxyphenyl)pyrido[3,4-d]pyridazin-4-yl)amino)piperidin-1-carboxylate] |  |  | 16 | 
16 | CC#Cc1ccc2c(-c3ccc(C(F)(F)F)cc3O)nnc(N[C@H]3C[C@@](C)(O)C3)c2c1 [Compound 065, 2-(4-(((1S, 3S)-3-hydroxy-3-methylcyclobutyl)amino)-6-(prop-1-yn-1-yl)phthalazin-1-yl)-5-(trifluoromethyl)phenol] |  |  | 13 | 
